This data set concerns the target T1, PIT/PPIR system (Streptomyces coelicolor, UniProt Q9ADN3).
T1 construct: pMF156/pTWIN in CHO cells, PPIR-SEAP or GFP reporter
T1 sequence (Q9ADN3 1-252): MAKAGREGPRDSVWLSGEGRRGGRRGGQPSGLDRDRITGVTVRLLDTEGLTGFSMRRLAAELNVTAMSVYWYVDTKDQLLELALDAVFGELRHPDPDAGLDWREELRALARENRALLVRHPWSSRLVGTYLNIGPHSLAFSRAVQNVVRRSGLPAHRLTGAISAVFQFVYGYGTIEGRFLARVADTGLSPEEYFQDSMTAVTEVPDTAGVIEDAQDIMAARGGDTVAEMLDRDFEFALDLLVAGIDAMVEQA
In words: SEAP reporter assay, CHO-TWIN clones transfected with pMF172 (PPIR-SEAP). Type of data set: cell-based. The settings on record: for SEAP Production (%): 48 h, no inducer = 100. The source says:
pTWIN contains both PIT and tTA in a PSV40 -driven dicistronic configuration. For construction of pTWIN, PIT was first transferred from pMF156 as an EcoRI/HindIII fragment to the corresponding sites of pSBC-1 (EcoRI/HindIII; resulting in pMF167) before the PIT expression unit could be fused to the tTA expression unit contained on pSBC2-tTA (Fussenegger et al., 1997, supra) via SspI/NotI sites. Thus, pTWIN contains the dicistronic PSV40 -PIT-IRES-tTA-pA expression cassette.
Chinese hamster ovary cells (CHO-K1, ATCC: CCL 61), Baby hamster kidney cells (BHK-21, ATCC: CRL-8544), and HeLa cells (ATCC: CRL-7923) as well as stable cell lines CHO-PIT1, CHO-PIT2, CHO-TWIN195, CHO-TWIN1108 and CHO-PIT1-SEAP were cultured as described before (Fussenegger et al., 1998, Nat. Biotechnol. 16,468-472) in the presence of appropriate antibiotics: G418 400 μg/ml; zeocin 100 μg/ml. Optimized CaPO4 protocols were used for high efficiency transient transfection of all cell lines (id). Transient transfected cells were routinely analyzed after 48 h for GFP or SEAP expression using fluorescence microscopy and p-nitrophenolphosphate-based light absorbance timecourse, respectively, as described before (Fussenegger et al., 1998, Nat. Biotechnol. 16, 468-472; Berger et al., 1988, Gene 66, 1-10 b). For construction of stable CHO-PIT and CHO-TWIN cell lines, CHO-K1 was cotransfected either with pMF156 or pTWIN1 and pSV2neo carrying the G418 resistance gene. CHO-PIT1-SEAP was constructed by cotransfection of pMF172 and pZeoSV2 (Invitrogen). For assessment of dose-response characteristics of PPIR -regulated gene expression, CHO-PIT1-SEAP were cultured at cell densities of 150,000/ml for 48 at various PI concentrations. The mixed populations were cloned using FACS-mediated single-cell-sorting (FACStar^Plus; Beckton Dickinson). Gel retardation assay were performed as described (Salah-Bey et al., 1995, supra) using Pip purified from an overproducing strain of E. coli. Pip (0.02 pmol) was titrated with a range of antibiotic concentrations in a reaction volume of 20 μl. Protein solutions were pre-incubated at room temperature for 15 min. in the absence or presence of PI or its derivative quinupristin in a buffer containing 10 mM Tris (pH 7.8), 10 mM MgCl2, 300 mM NaCl, 2 mM DTT and 10% glycerol. An EcoRI-HindII PPTR fragment (0.02 pmol) containing three Pip binding sites (radiolabelled using α-^32 P)dATP was added and incubated for 15 min. To minimize nonspecific protein binding and increase protein stability, 2 μg of poly dIdC and 20 μg BSA were included in the incubation mix. Protein-DNA complexes were separated on 5% polyacrylamide,TBE gels and visualized by autoradiography.
CHO-TWIN195 and CHO-TWIN1108 were transfected under identical conditions with the isogenic plasmids containing the SEAP gene under control of the tTA-activated promoter PhCMV*-1 (pMF111) or the PIT-activated promoter PPIR (pMF172). Transfected cells were grown for 48 h in the presence or absence of either antibiotic prior to assay of SEAP activity.
Table 6: Comparison of the regulation performance of streptogramin- (PI and virginiamycin; VIR) and tetracycline-based gene regulation systems. The two cell clones CHO-TWIN195 and CHO-TWIN1108 containing both pristinamycin- and tetracycline-dependent transactivators were transfected with either the streptogramin-responsive or the TET-responsive SEAP reporter plasmids pMF172 (PPIR -SEAP) and pMF111 (PhCMV*-1 -SEAP), respectively, and the relative SEAP production was assessed. SEAP production values are normalized by SEAP activities under the antibiotic-free, active promoter conditions as follows: pMF172 in CHO-TWIN195:1.7 mU/ml; in CHO-TWIN1108 : 1.8 mU/ml. pMF111 in CHO-TWIN195 : 18.6 mU/ml; in CHO-TWIN1108 : 19.2 mU/ml.
Table 7: Compatibility of the streptogramin- and tetracycline-based gene regulation systems. Crossregulation of pristinamycin (PI) and the tetracyclines doxycycline (DOX) and tetracycline (TET). […]
(A reporter such as luciferase makes a cellular process visible.)

As for pristinamycin I [PI], where the note is “CHO-TWIN195 + pMF172”, the “Induction factor (IF; ratio of maximal expression level to antibiotic-repressed expression level)” value amounted to 12 and the “SEAP Production (%)” value was determined as 8.84 ± 0.01%. Moreover, under “CHO-TWIN1108 + pMF172”, the “Induction factor (IF; ratio of maximal expression level to antibiotic-repressed expression level)” value stood at 45 and the “SEAP Production (%)” value is given as 2.2 ± 0.4%.

Source of the values: patent US6287813A, “Antibiotic-based gene regulation system” (Cistronics Cell Technology GmbH, priority 1999, dated 2001).
